Data reported in ChEMBL document CHEMBL5154741, “Antibacterial alkylguanidino ureas: Molecular simplification approach, searching for membrane-based MoA” (Eur J Med Chem, 2022).
Each block holds one compound with its values, some of them ahead of it. Active and inactive are the calls of the source. The rule behind the calls is not given here.

Key:
Lipid bilayer [1] = experiment: Binding affinity to bacterial membrane mimic POPG large unilamellar vesicle assessed as hyperchromic shift at 125 uM measured after 1 hr by UV-Vis spectrophotometric analysis
Cell membrane [2] = experiment: Disruption of membrane integrity in Acinetobacter baumannii ATCC 17978 assessed as increase in PI uptake at 16 ug/ml measured after 15 mins by SYTO9/PI staining based fluorometric analysis; conditions: dose 16.0 µg/ml
Bacillus subtilis = experiment: Antibacterial activity against Bacillus subtilis ATCC 6633 assessed as bacterial growth inhibition incubated for 18 hrs by CLSI based micro-dilution broth method; type: functional
Enterococcus faecalis = experiment: Antibacterial activity against Enterococcus faecalis ATCC 19433 assessed as bacterial growth inhibition incubated for 18 hrs by micro-dilution broth method; type: functional
Streptococcus pyogenes = experiment: Antibacterial activity against Streptococcus pyogenes ATCC 12344 assessed as bacterial growth inhibition incubated for 18 hrs by micro-dilution broth method; type: functional
Staphylococcus aureus = experiment: Antibacterial activity against Staphylococcus aureus ATCC 25923 assessed as bacterial growth inhibition incubated for 18 hrs by micro-dilution broth method; type: functional
Escherichia coli = experiment: Antibacterial activity against Escherichia coli CCUG assessed as bacterial growth inhibition incubated for 18 hrs by micro-dilution broth method; type: functional
Klebsiella pneumoniae = experiment: Antibacterial activity against Klebsiella pneumoniae ATCC 13833 assessed as bacterial growth inhibition incubated for 18 hrs by micro-dilution broth method; type: functional
Acinetobacter baumannii = experiment: Antibacterial activity against Acinetobacter baumannii ATCC 17978 assessed as bacterial growth inhibition incubated for 18 hrs by micro-dilution broth method; type: functional
Pseudomonas aeruginosa = experiment: Antibacterial activity against Pseudomonas aeruginosa ATCC 27853 assessed as bacterial growth inhibition incubated for 18 hrs by micro-dilution broth method; type: functional
Lipid bilayer [3] = experiment: Binding affinity to bacterial membrane mimic POPG large unilamellar vesicle assessed as bathochromic shift at 125 uM measured at t = 0 by UV-Vis spectrophotometric analysis
[4] = Apparent permeability of the compound across bacterial inner membrane mimic PC-phospholipids in PBS buffer at pH 7.4 incubated for 5 hrs by PAMPA based UV-Vis spectrophotometric analysis; type: ADME
[5] = Apparent permeability of the compound across bacterial inner membrane mimic PC-phospholipids in PBS buffer assessed as membrane retention at pH 7.4 incubated for 5 hrs by PAMPA based UV-Vis spectrophotometric analysis; type: ADME, cell membranes; conditions: pH 7.4, 5 h
[6] = Apparent permeability of the compound across bacterial inner membrane mimic pure POPG in PBS buffer at pH 7.4 incubated for 5 hrs by PAMPA based UV-Vis spectrophotometric analysis; type: ADME
[7] = Apparent permeability of the compound across bacterial inner membrane mimic pure POPG in PBS buffer assessed as membrane retention at pH 7.4 incubated for 5 hrs by PAMPA based UV-Vis spectrophotometric analysis; type: ADME, cell membranes; conditions: pH 7.4, 5 h
[8] = Apparent permeability of the compound across bacterial inner membrane mimic POPE/POPG (6:4) in PBS buffer at pH 7.4 incubated for 5 hrs by PAMPA based UV-Vis spectrophotometric analysis; type: ADME
[9] = Apparent permeability of the compound across bacterial inner membrane mimic POPE/POPG (6:4) in PBS buffer assessed as membrane retention at pH 7.4 incubated for 5 hrs by PAMPA based UV-Vis spectrophotometric analysis; type: ADME, cell membranes; conditions: pH 7.4, 5 h
Cell membrane [10] = experiment: Disruption of membrane integrity in Bacillus subtilis ATCC 6633 assessed as increase in PI uptake at 16 ug/ml measured after 15 mins by SYTO9/PI staining based fluorometric analysis; conditions: dose 16.0 µg/ml
Cell membrane [11] = experiment: Disruption of membrane integrity in Pseudomonas aeruginosa ATCC 27853 assessed as increase in PI uptake at 16 ug/ml measured every 15 mins for 6 hrs by SYTO9/PI staining based fluorometric analysis; conditions: dose 16.0 µg/ml
Cell membrane [12] = experiment: Disruption of membrane integrity in Enterococcus faecalis ATCC 19433 assessed as increase in PI uptake at 16 ug/ml measured after 15 mins by SYTO9/PI staining based fluorometric analysis; conditions: dose 16.0 µg/ml
Cell membrane [13] = experiment: Disruption of membrane integrity in Escherichia coli MG1655 assessed as increase in PI uptake at 16 ug/ml measured every 15 mins for 6 hrs by SYTO9/PI staining based fluorometric analysis; conditions: dose 16.0 µg/ml
Cell membrane [14] = experiment: Disruption of membrane integrity in Staphylococcus aureus ATCC 25923 assessed as increase in PI uptake at 16 ug/ml measured every 15 mins for 6 hrs by SYTO9/PI staining based fluorometric analysis; type: subcellular; conditions: dose 16.0 µg/ml
Cell membrane [15] = experiment: Disruption of membrane integrity in Enterococcus faecalis ATCC 19433 assessed as increase in PI positive cells at 16 ug/ml measured after 1 hr by SYTO9/PI staining based confocal laser scanning microscope analysis; type: subcellular; conditions: dose 16.0 µg/ml
Cell membrane [16] = experiment: Disruption of membrane integrity in Bacillus subtilis ATCC 6633 assessed as increase in PI positive cells at 16 ug/ml measured after 1 hr by SYTO9/PI staining based confocal laser scanning microscope analysis; type: subcellular; conditions: dose 16.0 µg/ml
Cell membrane [17] = experiment: Disruption of membrane integrity in Acinetobacter baumannii ATCC 17978 assessed as increase in PI positive cells at 16 ug/ml measured after 1 hr by SYTO9/PI staining based confocal laser scanning microscope analysis; conditions: dose 16.0 µg/ml
Cell membrane [18] = experiment: Disruption of membrane integrity in Escherichia coli MG1655 assessed as increase in PI positive cells at 16 ug/ml measured after 1 hr by SYTO9/PI staining based confocal laser scanning microscope analysis; type: subcellular; conditions: dose 16.0 µg/ml
Cell membrane [19] = experiment: Disruption of membrane integrity in Pseudomonas aeruginosa ATCC 27853 assessed as increase in PI positive cells at 16 ug/ml measured after 1 hr by SYTO9/PI staining based confocal laser scanning microscope analysis; type: subcellular; conditions: dose 16.0 µg/ml
Cell membrane [20] = experiment: Disruption of membrane integrity in Staphylococcus aureus ATCC 25923 assessed as increase in PI positive cells at 16 ug/ml measured after 1 hr by SYTO9/PI staining based confocal laser scanning microscope analysis; type: subcellular; conditions: dose 16.0 µg/ml
[21] = Hemolytic activity against human RBC at 1 ug/ml incubated for 30 mins (reference value: 0%); type: toxicity, cell-based, Erythrocyte; conditions: human red blood cells (erythrocytes), at 1 µg/mL, read-out: Activity
[22] = Hemolytic activity against human RBC at 2 ug/ml incubated for 30 mins (reference value: 0%); type: toxicity, cell-based, Erythrocyte; conditions: human red blood cells (erythrocytes), at 2 µg/mL, read-out: Activity
[23] = Hemolytic activity against human RBC at 4 ug/ml incubated for 30 mins (reference value: 0%); type: toxicity, cell-based, Erythrocyte; conditions: human red blood cells (erythrocytes), at 4 µg/mL, read-out: Activity
[24] = Hemolytic activity against human RBC at 8 ug/ml incubated for 30 mins (reference value: 0%); type: toxicity, cell-based, Erythrocyte; conditions: human red blood cells (erythrocytes), at 8 µg/mL, read-out: Activity
[25] = Hemolytic activity against human RBC at 16 ug/ml incubated for 30 mins relative to control; type: toxicity, cell-based, Erythrocyte; conditions: human red blood cells (erythrocytes), at 16 µg/mL, read-out: Activity
[26] = Hemolytic activity against human RBC at 32 ug/ml incubated for 30 mins (reference value: 0%); type: toxicity, cell-based, Erythrocyte; conditions: human red blood cells (erythrocytes), at 32 µg/mL, read-out: Activity
[27] = Hemolytic activity against human RBC at 64 ug/ml incubated for 30 mins (reference value: 0%); type: toxicity, cell-based, Erythrocyte; conditions: human red blood cells (erythrocytes), at 64 µg/mL, read-out: Activity
Cell membrane [28] = experiment: Disruption of membrane integrity in Acinetobacter baumannii ATCC 17978 assessed as increase in PI uptake at 16 ug/ml measured after 1 hr by SYTO9/PI staining based fluorometric analysis; type: subcellular; conditions: dose 16.0 µg/ml
Cell membrane [29] = experiment: Disruption of membrane integrity in Bacillus subtilis ATCC 6633 assessed as increase in PI uptake at 16 ug/ml measured after 1 hr by SYTO9/PI staining based fluorometric analysis; type: subcellular; conditions: dose 16.0 µg/ml
Cell membrane [30] = experiment: Disruption of membrane integrity in Enterococcus faecalis ATCC 19433 assessed as increase in PI uptake at 16 ug/ml measured after 1 hr by SYTO9/PI staining based fluorometric analysis; type: subcellular; conditions: dose 16.0 µg/ml
Cell membrane [31] = experiment: Disruption of membrane integrity in Escherichia coli MG1655 assessed as increase in PI uptake at 16 ug/ml measured after 1 hr by SYTO9/PI staining based fluorometric analysis; type: subcellular; conditions: dose 16.0 µg/ml
Cell membrane [32] = experiment: Disruption of membrane integrity in Pseudomonas aeruginosa ATCC 27853 assessed as increase in PI uptake at 16 ug/ml measured after 1 hr by SYTO9/PI staining based fluorometric analysis; type: subcellular; conditions: dose 16.0 µg/ml
Cell membrane [33] = experiment: Disruption of membrane integrity in Staphylococcus aureus ATCC 25923 assessed as increase in PI uptake at 16 ug/ml measured after 1 hr by SYTO9/PI staining based fluorometric analysis; conditions: dose 16.0 µg/ml

Structure (SMILES): N=C(N)NCCCCCCCCN(CCCCCCCCN)C(=O)N(CCCCCCCCN)CCCCCCCCNC(=N)N.O=C(O)C(F)(F)F
Activity (Lipid bilayer [1]): Active | Activity (Cell membrane [2]): Active | MIC (Bacillus subtilis): 0.5 µg/mL | MIC (Enterococcus faecalis): 8 µg/mL | MIC (Streptococcus pyogenes): 0.25 µg/mL | MIC (Staphylococcus aureus): 0.5 µg/mL | MIC (Escherichia coli): 2 µg/mL | MIC (Klebsiella pneumoniae): 16 µg/mL | MIC (Acinetobacter baumannii): 16 µg/mL | MIC (Pseudomonas aeruginosa): 32 µg/mL | Activity (Lipid bilayer [3]): Active | Papp at 5 h [4]: 0.21 ×10⁻⁶ cm/s | R% [5]: 36.3% | Papp at 5 h [6]: 0.19 ×10⁻⁶ cm/s | R% [7]: 52.4% | Papp at 5 h [8]: 0.18 ×10⁻⁶ cm/s | R% [9]: 47.3% | Activity (Cell membrane [10]): Active | Activity (Cell membrane [11]): Active | Activity (Cell membrane [12]): Active | Activity (Cell membrane [13]): Active | Activity (Cell membrane [14]): Active | Activity (Cell membrane [15]): Active | Activity (Cell membrane [16]): Active | Activity (Cell membrane [17]): Active | Activity (Cell membrane [18]): Active | Activity (Cell membrane [19]): Active | Activity (Cell membrane [20]): Active | hemolysis at 0.5 h, 1 ug/ml [21]: 0% | hemolysis at 0.5 h, 2 ug/ml [22]: 0% | hemolysis at 0.5 h, 4 ug/ml [23]: 0% | hemolysis at 0.5 h, 8 ug/ml [24]: 0% | hemolysis at 0.5 h, 16 ug/ml [25]: 0.6% | hemolysis at 0.5 h, 32 ug/ml [26]: 1.6% | hemolysis at 0.5 h, 64 ug/ml [27]: 2% | Activity (Cell membrane [28]): Active | Activity (Cell membrane [29]): Active | Activity (Cell membrane [30]): Active | Activity (Cell membrane [31]): Active | Activity (Cell membrane [32]): Active | Activity (Cell membrane [33]): Active

Activity (Lipid bilayer [1]): Active | Activity (Cell membrane [2]): Active | Activity (Lipid bilayer [3]): Active | Papp at 5 h [6]: 1.88 ×10⁻⁶ cm/s | R% [7]: 46.1% | Papp at 5 h [8]: 0.74 ×10⁻⁶ cm/s | R% [9]: 42.4% | Activity (Cell membrane [10]): Active | Activity (Cell membrane [11]): Active | Activity (Cell membrane [12]): Active | Activity (Cell membrane [13]): Active | Activity (Cell membrane [14]): Active | Activity (Cell membrane [15]): Active | Activity (Cell membrane [16]): Active | Activity (Cell membrane [17]): Active | Activity (Cell membrane [18]): Active | Activity (Cell membrane [19]): Active | Activity (Cell membrane [20]): Active | Activity (Cell membrane [28]): Active | Activity (Cell membrane [29]): Active | Activity (Cell membrane [30]): Active | Activity (Cell membrane [31]): Active | Activity (Cell membrane [32]): Active | Activity (Cell membrane [33]): Active
Structure (SMILES): N=C(N)NCCCCCCCCN(CCCCCCCCNC(=N)NCC1CC1)C(=O)N(CCCCCCCCNC(=N)N)CCCCCCCCNC(=N)NCC1CC1
hemolysis at 0.5 h, 1 ug/ml [21]: 0% | hemolysis at 0.5 h, 2 ug/ml [22]: 0.2% | hemolysis at 0.5 h, 4 ug/ml [23]: 0.4% | hemolysis at 0.5 h, 8 ug/ml [24]: 0.8% | hemolysis at 0.5 h, 16 ug/ml [25]: 1.2% | hemolysis at 0.5 h, 32 ug/ml [26]: 2% | hemolysis at 0.5 h, 64 ug/ml [27]: 3.4%
